Experimental data from US12064438B2, “Pharmaceutical preparation excellent in light stability and dissolution property” (priority 2017, dated 2024).

Legend:
influenza virus [1] = format: in vivo, human; conditions: 20 to younger than 65 years old, Compound II-6 single 40 or 80 mg, Oseltamivir 75 mg twice a day for 5 days
[2] = for Adverse events the causal relationship of which cannot be denied, number of episodes: Compound II-6 610 patients, Oseltamivir 513 patients; for Adverse events the causal relationship of which cannot be denied, proportion of patients: Compound II-6 single 40 or 80 mg, Oseltamivir 75 mg twice a day for 5 days
Description: The number of side-effect episodes and the number of patients with side effect were counted for each administration group.

influenza virus [3] = experiment: Clinical test: randomized, placebo-controlled, double-blind study, time to alleviation of influenza symptoms (10, 20, 40 mg); format: in vivo, human
[4] = single oral 20 mg, Cox proportional hazard model relative to placebo
[5] = single oral 40 mg, baseline symptom moderate or severe

SMILES | time to termination of viral shedding based on virus titer (influenza virus [1]) [h] | Amount of change in virus titer from baseline, Mean (influenza virus [1]; Day 5) | Adverse events the causal relationship of which cannot be denied, number of episodes [2] [episodes] | Adverse events the causal relationship of which cannot be denied, proportion of patients [2] [%] | Severe adverse events the causal relationship of which cannot be denied ([2]; human, in vivo) | Time until muscular or joint pain symptom is alleviated, Hazard ratio (influenza virus [3]; single oral 10 mg, Cox proportional hazard model relative to placebo) | Time to alleviation of influenza symptoms, Hazard ratio (influenza virus [3]; [4]) | Time until nasal congestion symptom is alleviated, Hazard ratio (influenza virus [3]; [4]) | median time until muscular or joint pain was improved, shorter in the 40 mg administered group than the placebo group (influenza virus [3]; single oral 40 mg) [h] | median time until nasal congestion was improved, shorter in the 40 mg administered group than the placebo group (influenza virus [3]; single oral 40 mg) [h] | Time until feverishness or chills symptom is alleviated, Hazard ratio (influenza virus [3]; single oral 40 mg, Cox proportional hazard model relative to placebo) | Time until muscular or joint pain symptom is alleviated, Difference from placebo (influenza virus [3]; [5]) [h] | Time until nasal congestion symptom is alleviated, Difference from placebo (influenza virus [3]; [5]) [h]
COC(=O)OCOc1c2n(ccc1=O)N([C@@H]1c3ccccc3SCc3c1ccc(F)c3F)[C@@H]1COCCN1C2=O [Compound II-6] | 24.0 | −4.95 log10 [TCID50/mL] | 37 | 4.4 | not reported | 0.77 | 0.81 | 0.59 | 16.4 | 21.0 | 0.71 | -16.4 | -21
CCOC(=O)C1=C[C@@H](OC(CC)CC)[C@H](NC(C)=O)[C@@H](N)C1 [Oseltamivir, reference compound] | 72.0 |  | 53 | 8.4 |  |  |  |  |  |  |  |  | 
